{"source": "patent US20110263485A1", "about": "“Bifunctional Griffithsin Analogs” (priority 2009, published 2011)", "key": {"[1]": {"test_system": "HeLa-ADA effector cells (HIV-1 ADA (R5) env) and HeLa-P5L target cells (CD4, CCR5)", "assay": "R5 cell-cell fusion assay", "conditions": "for IC50: read-out: R5 fusion assay IC50"}, "[2]": {"test_system": "ADA (R5) pseudovirus in TZM-bl cells", "conditions": "for IC50: read-out: ADA (R5) single round pseudovirus IC50"}, "X4 fusion": {"test_system": "X4 fusion", "conditions": "Martin et al. (2003); cited from earlier work"}, "CCR5-tropic fusion": {"test_system": "CCR5-tropic fusion", "conditions": "published reports, vaccinia technology; cited from earlier work"}, "[3]": {"test_system": "HL2/3 effector cells (HXB2 env (X4)) and HeLa-TZM target cells", "assay": "X4 cell-cell fusion assay", "assay_type": "cell-based, HIV-1", "description": "In the X4 fusion assay, HeLa-TZM cells were used as target cells and HL2/3 cells were used as effector cells."}, "Ba-L (R5) in PBMC": {"test_system": "Ba-L (R5) in PBMC", "assay": "HIV-1 replication in PBMC, Ba-L", "assay_type": "cell-based"}, "IIIB (X4) in MAGI cells": {"test_system": "IIIB (X4) in MAGI cells", "assay": "replication competent HIV assay, IIIB in MAGI cells", "assay_type": "cell-based"}, "multiple clades of HIV": {"test_system": "multiple clades of HIV", "conditions": "cited from earlier work"}, "[4]": {"test_system": "JRFL (R5) pseudovirus in TZM-bl cells", "assay": "single round infection assay, JRFL pseudovirus"}, "rabbit vaginal model": {"test_system": "rabbit vaginal model", "conditions": "in vivo; cited from earlier work"}, "HIV [5]": {"test_system": "HIV", "conditions": "cited from earlier work"}, "ADA (R5) in MAGI cells": {"test_system": "ADA (R5) in MAGI cells", "assay": "replication competent HIV assay, ADA in MAGI cells", "assay_type": "cell-based"}, "Ba-L (R5) in MAGI cells": {"test_system": "Ba-L (R5) in MAGI cells", "assay": "replication competent HIV assay, Ba-L in MAGI cells", "assay_type": "cell-based"}, "[6]": {"test_system": "HeLa P5L cells pre-incubated with inhibitor, washed, then HeLa ADA cells", "assay": "R5 fusion assay with wash-out on P5L cells"}, "91US005 (R5) in PBMC": {"test_system": "91US005 (R5) in PBMC", "assay": "HIV-1 replication in PBMC, 91US005", "assay_type": "cell-based"}, "[7]": {"test_system": "NL4-3 (CXCR4-tropic) in PBMCs", "assay": "HIV-1 replication in PBMC, NL4-3", "assay_type": "cell-based", "conditions": "combinations as total protein concentration"}, "[8]": {"test_system": "HeLa ADA cells pre-incubated with inhibitor, washed, then HeLa P5L cells", "assay": "R5 fusion assay with wash-out on ADA cells"}, "[9]": {"test_system": "92HT599 (CXCR4-tropic) in PBMCs", "assay": "HIV-1 replication in PBMC, 92HT599", "assay_type": "cell-based", "conditions": "combinations as total protein concentration"}, "human cervical explants": {"test_system": "human cervical explants", "conditions": "cited from earlier work"}, "[10]": {"test_system": "HeLa-ADA effector cells and HeLa-P5L target cells seeded with 3T3 cells", "assay": "competition R5 fusion assay with mouse 3T3 competitor cells", "assay_type": "cell-based, HIV-1", "conditions": "for inhibition in R5 fusion assay with competitor cells, in words: mouse 3T3 competitor cells", "procedure": "In the competition R5 fusion assay, 5×10^3 HeLa-P5L cells were seeded together with 5×10^3 3T3 cells per well. The rest of the procedure was identical to the normal R5 fusion assay.\nFor a potential therapeutic to be beneficial in an organism, it needs to be able to effectively find its target in the milieu of other cell types and potential binding partners. As a test of this ability, the R5 cell fusion assay was modified with the addition of unrelated mouse 3T3 cells."}, "[11]": {"conditions": "cited from earlier work"}, "HIV [12]": {"test_system": "HIV", "conditions": "read-out: IC50 (50% inhibition) in in vitro assays; Root & Steger (2004); cited from earlier work"}}, "note": "“And” between values parts separate entries of the source, which are not always exact repeats. Identical values can stand only once. Like-named read-outs stand apart in the source and are kept apart here.", "data": [{"substance": "Ac-HTTWMEWDREINNYTSLIHSLIEESQNLQEKNEQELL-NH2 [C37(Q652L)]", "values": [{"measurement": "IC50", "setting": "[1]", "value": "28.2 ± 8.34", "unit": "nM"}, {"measurement": "IC50", "setting": "[2]", "value": "114 ± 4.94", "unit": "nM"}]}, {"substance": "CD4M33: 27 amino acid peptide designed by Martin et al. as a mimic of human CD4 binding HIV gp120 (CNLHFCQLRCKSLGLLGKCAGSFCACV)", "values": [{"measurement": "IC50", "setting": "X4 fusion", "value": "800 ± 90", "unit": "nM"}, {"measurement": "amount required to inhibit CCR5-tropic fusion", "setting": "CCR5-tropic fusion", "value": "micromolar amounts of the peptide are required"}]}, {"substance": "Griff37 I642D: Griff37 with substitution of Asp for Ile at position 642 in C37", "values": [{"measurement": "inhibition in R5 fusion assay, in words", "setting": "[1]", "value": "shows decreased activity"}]}, {"substance": "GriffC37(Q652L): Griff37 with point mutation Q652L in the C37 part", "values": [{"measurement": "inhibition in R5 fusion assay, in words", "setting": "[1]", "value": "approximately the same effectiveness as Griff37"}, {"measurement": "inhibition in X4 fusion assay, in words", "setting": "[3]", "value": "similar"}]}, {"substance": "Griffithsin", "values": [{"measurement": "IC50", "setting": "Ba-L (R5) in PBMC; PBMCs, Table 8, combinations as total protein concentration, read-out: Ba-L (CCR5-tropic) IC50", "value": "0.28 ± 0.17", "unit": "nM"}, {"measurement": "IC90", "setting": "Ba-L (R5) in PBMC; PBMCs, Table 8, combinations as total protein concentration, read-out: Ba-L (CCR5-tropic) IC90", "value": "0.76 ± 0.15", "unit": "nM"}, {"measurement": "IC50", "setting": "Ba-L (R5) in PBMC; Table 7, read-out: Ba-L (R5) in PBMC IC50", "value": "0.28 ± 0.17", "unit": "nM"}, {"measurement": "IC90", "setting": "Ba-L (R5) in PBMC; Table 7, read-out: Ba-L (R5) in PBMC IC90", "value": "0.76 ± 0.15", "unit": "nM"}, {"measurement": "IC50", "setting": "[1]", "value": "1.31 nM and 1.3 nM"}, {"measurement": "IC50", "setting": "IIIB (X4) in MAGI cells", "value": "0.145 ± 0.065", "unit": "nM"}, {"measurement": "IC90", "setting": "IIIB (X4) in MAGI cells", "value": "0.89 ± 0.11", "unit": "nM"}, {"measurement": "activity against clades of HIV", "setting": "multiple clades of HIV", "value": "active against multiple clades of HIV"}, {"measurement": "IC50", "setting": "[4]; read-out: JRFL (R5) single round pseudovirus IC50", "value": "0.035 ± 0.008", "unit": "nM"}, {"measurement": "IC90", "setting": "[4]; read-out: JRFL (R5) single round pseudovirus IC90", "value": "1.25 ± 0.19", "unit": "nM"}, {"measurement": "irritation in a rabbit vaginal model", "setting": "rabbit vaginal model", "value": "non irritating"}, {"measurement": "IC50", "setting": "[3]", "value": "0.48 nM and 0.468 nM"}, {"measurement": "IC50", "setting": "[2]", "value": "0.008 ± 0.016", "unit": "nM"}, {"measurement": "IC90", "setting": "[2]; read-out: ADA (R5) single round pseudovirus IC90", "value": "0.164 ± 0.069", "unit": "nM"}, {"measurement": "activity in cervical/vaginal lavage fluid", "setting": "HIV [5]", "value": "retains its activity"}, {"measurement": "IC50", "setting": "ADA (R5) in MAGI cells", "value": "0.03 ± 0.01", "unit": "nM"}, {"measurement": "IC90", "setting": "ADA (R5) in MAGI cells", "value": "0.45 ± 0.04", "unit": "nM"}, {"measurement": "IC50", "setting": "Ba-L (R5) in MAGI cells", "value": 0.04, "unit": "nM"}, {"measurement": "IC90", "setting": "Ba-L (R5) in MAGI cells", "value": "0.515 ± 0.055", "unit": "nM"}, {"measurement": "inhibition after wash-out on target (P5L) cells, in words", "setting": "[6]", "value": "still performed well"}, {"measurement": "IC50", "setting": "[6]; read-out: R5 fusion with wash-out on P5L cells IC50", "value": "7.34 ± 3.58", "unit": "nM"}, {"measurement": "IC50", "setting": "91US005 (R5) in PBMC; PBMCs, Table 8, combinations as total protein concentration, read-out: 91US005 (CCR5-tropic) IC50", "value": "0.28 ± 0.17", "unit": "nM"}, {"measurement": "IC90", "setting": "91US005 (R5) in PBMC; PBMCs, Table 8, combinations as total protein concentration, read-out: 91US005 (CCR5-tropic) IC90", "value": "0.76 ± 0.15", "unit": "nM"}, {"measurement": "IC50", "setting": "91US005 (R5) in PBMC; Table 7, read-out: 91US005 (R5) in PBMC IC50", "value": "0.16 ± 0.03", "unit": "nM"}, {"measurement": "IC90", "setting": "91US005 (R5) in PBMC; Table 7, read-out: 91US005 (R5) in PBMC IC90", "value": "0.51 ± 0.08", "unit": "nM"}, {"measurement": "IC50", "setting": "[7]", "value": "0.17 ± 0.04", "unit": "nM"}, {"measurement": "IC90", "setting": "[7]", "value": "0.725 ± 0.13", "unit": "nM"}, {"measurement": "inhibition after wash-out on ADA cells, in words", "setting": "[8]", "value": "maintained nanomolar effectiveness"}, {"measurement": "IC50", "setting": "[8]; read-out: R5 fusion with wash-out on ADA cells IC50", "value": "4.28 ± 1.5", "unit": "nM"}, {"measurement": "IC50", "setting": "[9]", "value": "0.74 ± 0.37", "unit": "nM"}, {"measurement": "IC90", "setting": "[9]", "value": "1.86 ± 0.89", "unit": "nM"}, {"measurement": "inflammation in human cervical explants", "setting": "human cervical explants", "value": "non-inflammatory"}, {"measurement": "IC50", "setting": "[10]; 3T3 competitor cells", "value": "1.73 ± 0.603", "unit": "nM"}, {"measurement": "inhibition in R5 fusion assay with competitor cells, in words", "setting": "[10]", "value": "still performs well"}]}, {"substance": "P2-RANTES-linker-Griffithsin: P2-RANTES linked to Griffithsin; SEQ ID NO. 4", "values": [{"measurement": "inhibition in R5 fusion assay, in words", "setting": "[1]", "value": "more effective than Griffithsin alone"}, {"measurement": "inhibition in R5 fusion assay with competitor cells, in words", "setting": "[10]", "value": "appeared to perform better than either protein alone"}]}, {"substance": "enfuvirtide", "values": [{"measurement": "lifetime in vivo", "setting": "[11]", "value": "short lifetime of only hours in vivo"}, {"measurement": "IC50", "setting": "HIV [12]", "value": "2 to 20", "unit": "nM"}]}]}
